We go through 31 compounds from ChEMBL document CHEMBL3044998, “Improgan-like Analgesics: A Family of Compounds Derived From Histamine Anatgonists” (Med Chem Res, 2004).

Structures are written as SMILES. Calls of active or inactive are those of the source. The rule behind the calls is not given here.

In series [1] the test system is Rattus norvegicus. As to the kind of experiment: Antinociceptive activity in icv dosed Rattus norvegicus albino (rat) tus norvegicus Sprague-Dawley (rat) assessed as increase in thermal-stimulus induced tail flick latency after 5 to 10 min. The class given is functional. The settings on record: for Emax: Rattus norvegicus, Sprague-Dawley albino, Tail, central. On the technique in general: In hot-plate and tail-flick tests a longer latency is read as antinociception.

For series [2], the system named is Rattus norvegicus. Description: Antinociceptive activity in icv dosed Rattus norvegicus albino (rat) tus norvegicus Sprague-Dawley (rat) assessed as maximal increase in paw withdrawal latency after 5 to 10 min by hot plate test. The series is classed as functional. The settings on record: for Emax: Rattus norvegicus, Sprague-Dawley albino, central.
Series [3] deals with Rattus norvegicus. Description: Antinociceptive activity in icv dosed Rattus norvegicus albino (rat) tus norvegicus Sprague-Dawley (rat) assessed as increase in thermal-stimulus induced tail flick latency. The class given is functional, organism-based. The settings on record: TDE = time-dependent effect.
Series [4] concerns Rattus norvegicus. Description: Antinociceptive activity in icv dosed Rattus norvegicus albino (rat) tus norvegicus Sprague-Dawley (rat) assessed as maximal increase in paw withdrawal latency by hot plate test. The class given is functional, organism-based. The settings on record: TDE = time-dependent effect.
Series [5] concerns the target Histamine H3 receptor (Cavia porcellus, UniProt Q9JI35). Description: Binding affinity to histamine H3 receptor in Cavia porcellus (guinea pig) ileum. The series is classed as tissue-based.
Series [6] relates to Rattus norvegicus. Description: Neurotoxicity in icv dosed Rattus norvegicus albino (rat) tus norvegicus Sprague-Dawley (rat) assessed as motor impairment. The settings on record: in vivo, icv_or_intrathecal. The series is classed as toxicity, organism-based.
Series [7] concerns Rattus norvegicus. As to the kind of experiment: Toxicity in icv dosed Rattus norvegicus albino (rat) tus norvegicus Sprague-Dawley (rat) assessed as behavioral changes. The class given is organism-based. To be noted: in vivo, icv_or_intrathecal.
In series [8] the test system is Rattus norvegicus. Description: Neurotoxicity in Rattus norvegicus albino (rat) tus norvegicus Sprague-Dawley (rat) assessed as motor impairment at 20 to 60 ug, icv. The series is classed as toxicity, organism-based. The settings on record: in vivo, icv_or_intrathecal.
Series [9] relates to Rattus norvegicus. As to the kind of experiment: Toxicity in Rattus norvegicus albino (rat) tus norvegicus Sprague-Dawley (rat) assessed as behavioral changes at 20 to 60 ug, icv. The series is classed as organism-based. To be noted: in vivo, icv_or_intrathecal.
In series [10] the test system is Rattus norvegicus. Description: Antinociceptive activity in Rattus norvegicus albino (rat) tus norvegicus Sprague-Dawley (rat) assessed as increase in thermal-stimulus induced tail flick latency at 20 to 60 ug, icv. The series is classed as functional, organism-based. To be noted: TDE = time-dependent effect.
Series [11] has as its system Rattus norvegicus. Description: Antinociceptive activity in Rattus norvegicus albino (rat) tus norvegicus Sprague-Dawley (rat) assessed as maximal increase in paw withdrawal latency at 20 to 60 ug, icv by hot plate test. To be noted: TDE = time-dependent effect. The series is classed as functional, organism-based.
Series [12] deals with Rattus norvegicus. Description: Antinociceptive activity in Rattus norvegicus albino (rat) tus norvegicus Sprague-Dawley (rat) assessed as increase in thermal-stimulus induced tail flick latency at 20 to 60 ug, icv after 30 to 60 min. The class given is functional, organism-based.
Series [13] deals with Rattus norvegicus. As to the kind of experiment: Antinociceptive activity in Rattus norvegicus albino (rat) tus norvegicus Sprague-Dawley (rat) assessed as maximal increase in paw withdrawal latency at 20 to 60 ug, icv after 30 to 60 min by hot plate test. The class given is functional, organism-based.
In series [14] the target is Histamine H3 receptor (Homo sapiens, UniProt Q9Y5N1). As to the kind of experiment: Binding affinity to histamine H3 receptor (unknown origin).
A further series addresses Histamine H2 receptor (Homo sapiens, UniProt P25021). As to the kind of experiment: Binding affinity to histamine H2 receptor (unknown origin).

Sequence of Histamine H2 receptor (P25021 whole entry): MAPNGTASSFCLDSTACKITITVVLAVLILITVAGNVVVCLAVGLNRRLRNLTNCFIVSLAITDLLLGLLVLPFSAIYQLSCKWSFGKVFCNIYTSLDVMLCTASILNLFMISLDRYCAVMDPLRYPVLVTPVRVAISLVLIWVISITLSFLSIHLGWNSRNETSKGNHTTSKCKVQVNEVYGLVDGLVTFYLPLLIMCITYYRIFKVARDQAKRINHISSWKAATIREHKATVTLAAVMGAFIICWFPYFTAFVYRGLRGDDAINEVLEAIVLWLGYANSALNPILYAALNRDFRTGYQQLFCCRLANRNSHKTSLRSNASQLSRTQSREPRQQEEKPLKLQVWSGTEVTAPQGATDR
Sequence of Histamine H3 receptor (Homo sapiens, UniProt Q9Y5N1) (Q9Y5N1 whole entry): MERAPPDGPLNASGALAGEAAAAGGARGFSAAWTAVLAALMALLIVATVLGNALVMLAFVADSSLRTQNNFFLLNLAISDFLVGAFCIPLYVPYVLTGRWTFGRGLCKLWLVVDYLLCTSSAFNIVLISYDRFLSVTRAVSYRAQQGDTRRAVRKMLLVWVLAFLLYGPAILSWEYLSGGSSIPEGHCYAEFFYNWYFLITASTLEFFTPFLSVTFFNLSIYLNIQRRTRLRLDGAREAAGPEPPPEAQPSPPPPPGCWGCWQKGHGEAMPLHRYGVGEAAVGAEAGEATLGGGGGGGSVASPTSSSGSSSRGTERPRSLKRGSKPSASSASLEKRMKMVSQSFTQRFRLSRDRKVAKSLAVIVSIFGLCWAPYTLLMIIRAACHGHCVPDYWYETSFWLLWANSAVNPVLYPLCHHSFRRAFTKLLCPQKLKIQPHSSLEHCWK
Sequence of Histamine H3 receptor (Cavia porcellus, UniProt Q9JI35) (Q9JI35 whole entry): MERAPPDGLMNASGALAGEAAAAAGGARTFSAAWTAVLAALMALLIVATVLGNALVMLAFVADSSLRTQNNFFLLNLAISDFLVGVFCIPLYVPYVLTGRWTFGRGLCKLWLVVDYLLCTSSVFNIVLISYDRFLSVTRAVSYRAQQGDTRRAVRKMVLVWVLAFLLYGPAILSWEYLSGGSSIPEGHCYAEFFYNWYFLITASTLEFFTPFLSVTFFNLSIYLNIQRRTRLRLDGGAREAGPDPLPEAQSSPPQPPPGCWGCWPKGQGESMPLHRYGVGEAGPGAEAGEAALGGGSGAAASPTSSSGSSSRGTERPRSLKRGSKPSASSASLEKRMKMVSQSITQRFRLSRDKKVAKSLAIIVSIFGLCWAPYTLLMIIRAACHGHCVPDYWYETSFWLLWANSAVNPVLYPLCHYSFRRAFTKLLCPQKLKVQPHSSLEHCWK

Turning to `S=C(NCCCCc1c[nH]cn1)NC1CCCCC1`, the ED50 in the series with Rattus norvegicus [1] and in the series on Rattus norvegicus [2] was 285 nmol each time.
Regarding `C/N=C(\S)NCCCCc1c[nH]cn1` [BURIMAMIDE], the Activity result in the series with Rattus norvegicus [3] was “tde”; with Rattus norvegicus [1] it was “Dose-dependent effect”; in the series on Rattus norvegicus [4], “tde”; with Rattus norvegicus [2], “Dose-dependent effect”. Moreover, the ED50 in the series on Rattus norvegicus [1] and in the series on Rattus norvegicus [2] was 184 nmol in each case.
As for `S=C(NC1CCCCC1)N1CCC(c2cnc[nH]2)CC1` [THIOPERAMIDE], the ED50 in the series on Rattus norvegicus [1] and with Rattus norvegicus [2] was above 342 nmol throughout.
`CN/C(=N\C#N)NCCCc1c[nH]cn1` [IMPROGAN] came in with a Kd at Histamine H3 receptor [5] of 5 µM. The Activity result in the series with Rattus norvegicus [6] was “Non-toxic”; in the series on Rattus norvegicus [7], “Non-toxic”; with Rattus norvegicus [3], “tde”; with Rattus norvegicus [1] it was “Dose-dependent effect”; with Rattus norvegicus [4], “tde”; in the series with Rattus norvegicus [2] it was “Dose-dependent effect”. Besides, the ED50 with Rattus norvegicus [1] and with Rattus norvegicus [2] was 330 nmol throughout.
In the case of `CN/C(=N\C#N)NCCSCc1ccc(CN(C)C)o1`, the Activity entry in the series with Rattus norvegicus [8] was “Non-toxic”; in the series on Rattus norvegicus [9], “Non-toxic”; in the series with Rattus norvegicus [10], “tde”; in the series on Rattus norvegicus [11], “tde”; in the series on Rattus norvegicus [1], “Dose-dependent effect”; in the series with Rattus norvegicus [2] it was “Dose-dependent effect”. The outcome in the series with Rattus norvegicus [12] and in the series on Rattus norvegicus [13] was inactive. Besides, the ED50 in the series with Rattus norvegicus [1] and in the series on Rattus norvegicus [2] was 67 nmol throughout.
`CN/C(=C\[N+](=O)[O-])NCCCCc1c[nH]cn1`: the ED50 with Rattus norvegicus [1] and with Rattus norvegicus [2] was 104 nmol in each case.
Regarding `CNC(=S)NCCSCc1[nH]cnc1C` [METIAMIDE], the ED50 with Rattus norvegicus [1] and with Rattus norvegicus [2] was 370 nmol throughout.
As for `CNC(=C[N+](=O)[O-])NCCSCc1ccc(CN(C)C)o1` [RANITIDINE], the ED50 in the series on Rattus norvegicus [1] and with Rattus norvegicus [2] was 109 nmol throughout.
`CN/C(=N/CCSCc1nc[nH]c1C)NC#N` [CIMETIDINE]: the Activity result in the series with Rattus norvegicus [6] and with Rattus norvegicus [7] was “Non-toxic” each time.
For `S=C(NCCCCc1c[nH]cn1)Nc1ccccc1`, the ED50 with Rattus norvegicus [1] and in the series on Rattus norvegicus [2] was 81 nmol in each case.
In the case of `C/N=C(/NC#N)NCCSCc1csc(NC(=N)N)n1` [TIOTIDINE], the ED50 with Rattus norvegicus [1] and in the series on Rattus norvegicus [2] was above 320 nmol in each case.
In the case of `C/N=C(\S)NCCCc1c[nH]cn1` [NORBURIMAMIDE], the ED50 in the series with Rattus norvegicus [1] and in the series on Rattus norvegicus [2] was 217 nmol each time.
As to `C/N=C(\S)NCCc1c[nH]cn1`, the ED50 in the series with Rattus norvegicus [1] and in the series with Rattus norvegicus [2] was 85 nmol throughout.
Take `S=C(NCCCCCCc1c[nH]cn1)Nc1ccccc1`: the Emax in the series on Rattus norvegicus [1] and in the series with Rattus norvegicus [2] was below 100% in each case.
Regarding `S=C(Nc1ccccc1)N1CCC(c2c[nH]cn2)CC1`, the Emax in the series on Rattus norvegicus [1] and with Rattus norvegicus [2] was below 100% in each case.
As to `S=C(NCCc1c[nH]cn1)Nc1ccccc1`, the ED50 with Rattus norvegicus [1] and in the series with Rattus norvegicus [2] was 89 nmol throughout.
For the compound `CNC(=S)NCCCCc1cnc[nH]1` [BURIMAMIDE], the Kd on Histamine H3 receptor [14] stood at 0.1 µM; on Histamine H2 receptor, 7.8 µM. Further, the Activity result in the series with Rattus norvegicus [6] and in the series on Rattus norvegicus [7] was “Non-toxic” in each case.
As to `CN/C(=C/[N+](=O)[O-])NCCCn1ccnc1`, the Activity result in the series on Rattus norvegicus [6] and in the series on Rattus norvegicus [7] was “Non-toxic” each time.
Turning to `c1cc(CN2CCCCC2)cc(OCCCNc2nc3ccccc3s2)c1` [ZOLANTIDINE], the ED50 with Rattus norvegicus [1] and with Rattus norvegicus [2] was above 262 nmol each time.
As to `NC(=NCc1ccc(Cl)cc1)SCCCc1cnc[nH]1` [CLOBENPROPIT], the Activity entry in the series with Rattus norvegicus [6] and in the series with Rattus norvegicus [7] was “Non-toxic” each time.
For the compound `CNC(=S)N1CCC(c2c[nH]cn2)CC1`, the ED50 in the series with Rattus norvegicus [1] and in the series on Rattus norvegicus [2] was 201 nmol in each case.
For the compound `S=C(NCCCCc1c[nH]cn1)NCCc1ccccc1`, the ED50 in the series with Rattus norvegicus [1] and in the series on Rattus norvegicus [2] was 80 nmol throughout.
For the compound `S=C(NCCCCc1c[nH]cn1)NCc1ccccc1`, the ED50 in the series with Rattus norvegicus [1] and with Rattus norvegicus [2] was 105 nmol each time.
On to `C/N=C(\S)NCCCCCCc1c[nH]cn1`, for which the ED50 with Rattus norvegicus [1] and with Rattus norvegicus [2] was 87 nmol in each case.
In the case of `CN/C(=N\CCSCc1nc[nH]c1C)NC#N` [CIMETIDINE], the Activity entry with Rattus norvegicus [3] is “tde”; with Rattus norvegicus [1] it was “Dose-dependent effect”; in the series with Rattus norvegicus [4] it was “tde”; in the series on Rattus norvegicus [2] it was “Dose-dependent effect”. In addition, the ED50 in the series on Rattus norvegicus [1] and in the series with Rattus norvegicus [2] was 464 nmol throughout.
In the case of `C/N=C(\S)NCCCn1ccnc1`, the ED50 in the series with Rattus norvegicus [1] and in the series on Rattus norvegicus [2] was above 504 nmol throughout.
Regarding `c1ccc(NCCCOc2cccc(CN3CCCCC3)c2)cc1` [SKF95299], the ED50 in the series with Rattus norvegicus [1] and with Rattus norvegicus [2] was above 308 nmol in each case.
For `CN/C(=N\C#N)NCCSCc1ccccn1`, the ED50 with Rattus norvegicus [1] and with Rattus norvegicus [2] was above 602 nmol in each case.
For `O=C(NCCCCc1c[nH]cn1)Nc1ccccc1`, the ED50 in the series on Rattus norvegicus [1] and in the series with Rattus norvegicus [2] was 65 nmol throughout.
On to `CNC(=S)NCCSCc1ccc(CN(C)C)o1`, for which the Activity result was “Non-toxic” with Rattus norvegicus [6], “Non-toxic” in the series with Rattus norvegicus [7], “tde” in the series on Rattus norvegicus [3] and “tde” with Rattus norvegicus [4]. In addition, the ED50 in the series on Rattus norvegicus [1] and in the series on Rattus norvegicus [2] was 117 nmol each time.
As for `CN/C(=N\C#N)NCCSCc1ccccc1`, the ED50 in the series with Rattus norvegicus [1] and in the series on Rattus norvegicus [2] was above 403 nmol in each case.

In general, Kd refers to a measure of binding affinity in units of concentration. A higher Kd goes with a looser complex. What is called Emax is the maximal effect, on the per cent scale that the assay sets.
